Results from patent publication US20090275667A1, “USE OF ALLICIN AS PRESERVATIVE, AS DISINFECTANT, AS ANTIMICROBIAL OR AS BIOCIDAL AGENT” (Stone Island Holdings Ltd, priority 2003, published 2009).
Where “and” joins values, the source holds several entries; their conditions need not be identical. Identical values can stand only once.

Experiments:
[1] = tested on: Escherichia coli (NCTC 8156); assay: Modified Kelsey-Sykes test; assay type: cell-based; set-up: key: CG = Confluent growth
From the text: Allicin can be used to displace or supplement existing harmful forms of disinfectant/biocide such as chlorine, sodium hypochlorite, ozone and per-acetic acid all of which can have an adverse effect on the environment. UV radiation is also used for disinfection but power and general running costs are high. Laboratory studies have been conducted on our behalf using allicin on aqueous suspensions of bacterial species commonly used as indicators of the effectiveness of water and wastewater disinfection. To this effect, identified isolates from the faecal coliform and streptococcus groups, namely, Escherichia coli (NCTC 8156) and Enterococcus hirae (University of Brighton isolate) were used in all experiments. An aqueous solution of allicin with a nominal concentration of allicin of 1.8 g per litre ie a 0.18% solution was used.
Stock suspensions of Escherichia coli (NCTC 8156) and Enterococcus hirae (University of Brighton isolate) were cultivated in Nutrient Broth No. 2 from freeze dried isolates. Prior to each experiment, serial dilutions of the suspensions were enumerated by the spread plate method on Nutrient Agar and subsequent incubation at 37 deg C.
Initial experimental procedures were based on the methods set out in an established UK protocol (BS 6905: 1987). The Kelsy-Sykes methodology was developed as a guide to the concentrations of disinfectants which may be recommended for use under “dirty” (wastewater/sewage) conditions. It is therefore a suitable means of establishing the effectiveness of a disinfectant against a wastewater containing particulate and dissolved contaminants in addition to micro-organisms.
Therefore, with regard to wastewater/sewage considerations, the protocol was adapted. Under the revised methodology, a sample was taken from the bacterial suspension/biocide mix after the prescribed contact time and plated out onto solid media so that a colony count could be made (see Tables 1 and 2).

P. alvei = assay: Investigation into bacteriostatic or bactericidal effects (Study 2); assay type: cell-based, Paenibacillus alvei; settings: conclusion from subculture into fresh media
Description: Where there was no growth in a replicate, at the end of one week the culture was plated out for single colonies on the appropriate agar. This was to determine whether the test item had bactericidal activity, where all the bacterial cells are killed, or bacteriostatic action, where the cells are unable to replicate in the presence of the substance, but will grow when it is removed. A further test, where 0.5 ml of the broth was transferred into 4.5 ml fresh broth (giving a 1:10 dilution) was also undertaken. There would still be some Allicin in the broth, but it should be present at a low enough concentration for growth not to be affected. Where growth occurred in the absence of Allicin, the broth was examined microscopically and plated out for single colonies to confirm the identity of the bacterium.

Ascosphaera apis = assay: Disk diffusion test (Kirby-Bauer), zone of inhibition; assay type: cell-based; settings: 6 mm paper disc containing 250 μg of allicin
Description: (§1) Allicin (Allisure™ Liquid) was tested against bacterial and fungal pathogens using a standard disk diffusion method (per Norrell & Messley). The aliquots of bacterial or fungal spores (100 μl of approximately 10^8-10^9 spores/ml) were plated on Mueller-Hinton agar medium, 4.0 mm depth. The 6 mm paper discs containing 250 μg of allicin or 5 μg of tylosin (positive control) were placed in the center of each plate. Plates were incubated at 33° C. and 6% CO2 and a zone of inhibition was measured 24 h, 48 h or 76 h post inoculation depending on the microbial species. All experiments were replicated at least three times.

Ascosphaera aggregata = assay: as above; assay type: cell-based; settings: 6 mm paper disc containing 250 μg of allicin
Description: as §1

[2] = tested on: Paenibacillus larvae subsp. pulvifaciens; assay: as above; assay type: cell-based; settings: 6 mm paper disc containing 250 μg of allicin
Description: as §1

[3] = tested on: Paenibacillus larvae subsp. larvae; assay: as above; assay type: cell-based; settings: 6 mm paper disc containing 250 μg of allicin
Description: as §1

[4] = allicin conc. 0.9 % (w/v), 10 mins
[5] = allicin conc. 0.9 % (w/v), 20 mins
[6] = allicin conc. 0.9 % (w/v), 30 mins
[7] = allicin conc. 1.08 % (w/v), 10 mins
[8] = allicin conc. 1.08 % (w/v), 20 mins
[9] = allicin conc. 1.26 % (w/v), 10 mins
[10] = allicin conc. 1.26 % (w/v), 20 mins
[11] = allicin conc. 1.62 % (w/v), 10 mins
[12] = allicin conc. 1.62 % (w/v), 20 mins

C=CCS[S+]([O-])CC=C (stereo not shown) [allicin, Allicin]
Numbers of colony forming units killed [1, 4]: CG
Percentage reduction in colony forming units [1, 4]: CG
Numbers of colony forming units killed [1, 5]: CG
Percentage reduction in colony forming units [1, 5]: CG
Numbers of colony forming units killed [1, 6]: CG
Percentage reduction in colony forming units [1, 6]: CG
Numbers of colony forming units killed [1, 7]: CG
Percentage reduction in colony forming units [1, 7]: CG
Numbers of colony forming units killed [1, 8]: CG
Percentage reduction in colony forming units [1, 8]: CG
Percentage reduction in colony forming units ([1]; allicin conc. 1.08 % (w/v), 30 mins): 94%
Numbers of colony forming units killed [1, 9]: CG
Percentage reduction in colony forming units [1, 9]: CG
Numbers of colony forming units killed [1, 10]: CG
Percentage reduction in colony forming units [1, 10]: CG
Percentage reduction in colony forming units ([1]; allicin conc. 1.26 % (w/v), 30 mins): 97%
Percentage reduction in colony forming units ([1]; allicin conc. 1.4 % (w/v), 10 mins): CG
Percentage reduction in colony forming units ([1]; allicin conc. 1.4 % (w/v), 20 mins): CG
Percentage reduction in colony forming units ([1]; allicin conc. 1.4 % (w/v), 30 mins): 89%
Numbers of colony forming units killed ([1]; allicin conc. 1.44 % (w/v), 10 mins): CG
Numbers of colony forming units killed ([1]; allicin conc. 1.44 % (w/v), 20 mins): CG
Numbers of colony forming units killed [1, 11]: CG
Percentage reduction in colony forming units [1, 11]: CG
Numbers of colony forming units killed [1, 12]: CG
Percentage reduction in colony forming units [1, 12]: CG
Percentage reduction in colony forming units ([1]; allicin conc. 1.62 % (w/v), 30 mins): 83%
bacteriostatic or bactericidal effect (P. alvei): did not kill all bacteria
zone of inhibition (Ascosphaera apis): 31-35 mm
zone of inhibition (Ascosphaera aggregata): 35-37 mm and 35-38 mm
zone of inhibition [2]: 24-26 mm
zone of inhibition [3]: 45-50 mm
